Measurements as given in patent US20240409585A1, “MACROCYCLIC IMMUNOMODULATORS” (priority 2021, published 2024).
Like-named read-outs stand apart in the source and are kept apart here. Numbered stars: 1 amine (or outer) side, 2 acyl side, 3 side chain; on linkers, the order of the positions; unused ones are H or OH. Bridge positions count the residues as written; N and C are the ends. Square brackets hold non-standard residues; d marks the D form. Peptide text beside a SMILES is read from it. * marks the point of attachment. Bip(4'-COOH) = N[C@@H](Cc1ccc(-c2ccc(C(=O)O)cc2)cc1)C(=O)O; Bip(4'-NHAc) = CC(=O)Nc1ccc(-c2ccc(C[C@H](N)C(=O)O)cc2)cc1; Phe(3-CF3) = N[C@@H](Cc1cccc(C(F)(F)F)c1)C(=O)O; Ala(morpholin-4-yl) = N[C@@H](CN1CCOCC1)C(=O)O; Phe(4-CONH2) = NC(=O)c1ccc(C[C@H](N)C(=O)O)cc1; Phe(4-COOH) = N[C@@H](Cc1ccc(C(=O)O)cc1)C(=O)O; Bip = N[C@@H](Cc1ccc(-c2ccccc2)cc1)C(=O)O; Abu(3R-NH2) = C[C@@H](N)[C@H](N)C(=O)O; Phe(3-Me) = Cc1cccc(C[C@H](N)C(=O)O)c1; Gla = N[C@@H](CC(C(=O)O)C(=O)O)C(=O)O; Propanoyl(3,3,3-F3) = O=C(CC(F)(F)F)*; Val(3-OH) = CC(C)(O)[C@H](N)C(=O)O; hPhe = N[C@@H](CCc1ccccc1)C(=O)O; Cha = N[C@@H](CC1CCCCC1)C(=O)O; Suc = O=C(CCC(=O)[*:2])[*:1]; Carboxymethyl = O=C(O)C*; NMeA = CN[C@@H](C)C(=O)O; Orn = NCCC[C@H](N)C(=O)O; Dab = NCC[C@H](N)C(=O)O; Dap = NC[C@H](N)C(=O)O

Target: T1, Alexa fluor-647 labeled human PD-L1-Ig binding to Jurkat cell line over-expressing human PD-1 (Homo sapiens, UniProt Q15116)
T1 construct: expressed in transfected cells; host or cells: Jurkat
T1 sequence (Q15116 25-288): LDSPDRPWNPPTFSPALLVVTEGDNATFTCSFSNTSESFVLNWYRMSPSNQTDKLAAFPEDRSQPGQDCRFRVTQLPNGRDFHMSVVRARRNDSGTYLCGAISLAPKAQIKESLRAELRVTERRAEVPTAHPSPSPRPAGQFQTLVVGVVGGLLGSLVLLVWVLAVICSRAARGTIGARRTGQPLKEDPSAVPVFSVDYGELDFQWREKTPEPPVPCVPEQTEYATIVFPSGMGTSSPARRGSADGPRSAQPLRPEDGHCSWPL
Assay: Jurkat-PD-1 Cell Binding High-Content Screening Assay (CBA): Method 3 (Alexa fluor-647 labeled PD-L1-Ig)
Conditions: Jurkat-PD-1 cells, Alexa fluor-647 labeled PD-L1-Ig 177 nM
Description: Jurkat-PD-1 Cell Binding High-Content Screening Assay (CBA): Method 3
Alexa fluor-647 was covalently linked to the Ig epitope tag of human PD-L1-Ig and fluorescently labeled PD-L1-Ig was used for the binding studies with a Jurkat cell line over-expressing human PD-1. Briefly, 2.5×10^4 Jurkat-hPD-1 cells were seeded into 384 well plates in 20 μl of RPMI supplemented with 10% fetal calf serum. 12.5 nl of compound was added to cells followed by incubation at 37° C. for 2 hours. Then, 10 ul of Alexa fluor-647 labeled PD-L1-Ig (177 nM final), diluted in RPMI supplemented with 10% fetal calf serum was added to the cells and incubated for 1 hour. Cells were then fixed with 4% paraformaldehyde containing 10 μg/ml Hoechst 33342 and then washed 3× in 100 ul PBS and 100 ul of PBS was added in the final step. Data was collected using the Operetta High Content Imager and the data was analyzed using the columbus software.

[1] = head μM, read-out: CBA Method 3 μM

Structure (SMILES)	IC50 [1] [µM]	IC50 (nM, read-out: CBA Method 3) [µM]
CC(C)C[C@H]1NC(=O)[C@H](C)N(C)C(=O)[C@H](Cc2ccc(C(=O)O)cc2)NC(=O)[C@H](Cc2ccc(-c3ccccc3)cc2)NC(=O)[C@H](CCc2ccccc2)NC(=O)[C@H](Cc2cccc(C(F)(F)F)c2)NC(=O)[C@H](CC(=O)O)NC(=O)[C@H](Cc2ccc(C(=O)O)cc2)NC(=O)[C@H](CN2CCOCC2)NC(=O)CSC[C@@H](C(=O)N[C@@H](CCN)C(N)=O)NC(=O)[C@H](CNC(=O)CCC(=O)O)NC(=O)[C@H](C(C)C)NC(=O)[C@H](CC2CCCCC2)NC(=O)[C@H](CCN)NC1=O [Example 5210] ({CH2CO}-[Ala(morpholin-4-yl)][Phe(4-COOH)]D[Phe(3-CF3)][hPhe][Bip][Phe(4-COOH)][NMeA][dL][Dab][Cha]V[Dap](Suc)C[Dab]-NH2; thioether N-14)	0.14	
Cc1cccc(C[C@@H]2NC(=O)[C@H](CC(=O)O)NC(=O)[C@H](Cc3ccc(-c4ccc(C(=O)O)cc4)cc3)NC(=O)[C@H](CN3CCOCC3)NC(=O)CSC[C@@H](C(=O)N[C@@H](CCN)C(N)=O)NC(=O)[C@H](CO)NC(=O)[C@H](C(C)(C)O)NC(=O)[C@H](CC3CCCCC3)NC(=O)[C@H](Cc3cnc[nH]3)NC(=O)[C@@H](CC(C)C)NC(=O)[C@H](C)N(C)C(=O)[C@H](Cc3ccc(C(=O)O)cc3)NC(=O)[C@H](Cc3ccc(-c4ccccc4)cc3)NC(=O)[C@H](Cc3ccc(-c4ccc(C(=O)O)cc4)cc3)NC2=O)c1 [Example 5122] ({CH2CO}-[Ala(morpholin-4-yl)][Bip(4'-COOH)]D[Phe(3-Me)][Bip(4'-COOH)][Bip][Phe(4-COOH)][NMeA][dL]H[Cha][Val(3-OH)]SC[Dab]-NH2; thioether N-14)	0.11	
CC(C)C[C@H]1NC(=O)[C@H](C)N(C)C(=O)[C@H](Cc2ccc(C(=O)O)cc2)NC(=O)[C@H](Cc2ccc(-c3ccccc3)cc2)NC(=O)[C@H](CCc2ccccc2)NC(=O)[C@H](Cc2cccc(C(F)(F)F)c2)NC(=O)[C@H](CC(=O)O)NC(=O)[C@H](Cc2ccc(C(=O)O)cc2)NC(=O)[C@H](CN2CCOCC2)NC(=O)CSC[C@@H](C(=O)N[C@@H](CCN)C(N)=O)NC(=O)[C@H](CNC(=O)CC(F)(F)F)NC(=O)[C@H](C(C)C)NC(=O)[C@H](CC2CCCCC2)NC(=O)[C@H](CCN)NC1=O [Example 5232] ({CH2CO}-[Ala(morpholin-4-yl)][Phe(4-COOH)]D[Phe(3-CF3)][hPhe][Bip][Phe(4-COOH)][NMeA][dL][Dab][Cha]V[Dap](Propanoyl(3,3,3-F3))C[Dab]-NH2; thioether N-14)	0.1	
Cc1cccc(C[C@@H]2NC(=O)[C@H](CC(=O)O)NC(=O)[C@H](Cc3ccc(OCC(=O)O)cc3)NC(=O)[C@H](CCc3ccccc3)NC(=O)CSC[C@@H](C(=O)N[C@@H](CCN)C(N)=O)NC(=O)[C@H](CCCN)NC(=O)[C@H](C(C)C)NC(=O)[C@H](CC3CCCCC3)NC(=O)[C@H](CCN)NC(=O)[C@@H](CC(C)C)NC(=O)[C@H](C)N(C)C(=O)[C@H](CCC(N)=O)NC(=O)[C@H](Cc3ccc(-c4ccccc4)cc3)NC(=O)[C@H](Cc3ccc(C(=O)O)cc3)NC2=O)c1 [Example 5265] ({CH2CO}-[hPhe]Y(Carboxymethyl)D[Phe(3-Me)][Phe(4-COOH)][Bip]Q[NMeA][dL][Dab][Cha]V[Orn]C[Dab]-NH2; thioether N-14)	0.03	
Cc1cccc(C[C@@H]2NC(=O)[C@H](CC(=O)O)NC(=O)[C@H](Cc3ccc(OCC(=O)O)cc3)NC(=O)[C@H](CC(C(=O)O)C(=O)O)NC(=O)CSC[C@@H](C(=O)N[C@@H](CCN)C(N)=O)NC(=O)[C@H](CCCN)NC(=O)[C@H](C(C)C)NC(=O)[C@H](CC3CCCCC3)NC(=O)[C@H](CCN)NC(=O)[C@@H](CC(C)C)NC(=O)[C@H](C)N(C)C(=O)[C@H](CCC(N)=O)NC(=O)[C@H](Cc3ccc(-c4ccccc4)cc3)NC(=O)[C@H](Cc3ccc(C(=O)O)cc3)NC2=O)c1 [Example 5169] ({CH2CO}-[Gla]Y(Carboxymethyl)D[Phe(3-Me)][Phe(4-COOH)][Bip]Q[NMeA][dL][Dab][Cha]V[Orn]C[Dab]-NH2; thioether N-14)		0.0089
CC(C)C[C@H]1NC(=O)[C@H](C)N(C)C(=O)[C@H](Cc2ccc(C(N)=O)cc2)NC(=O)[C@H](Cc2ccc(-c3ccccc3)cc2)NC(=O)[C@H](Cc2ccc(OCC(=O)O)cc2)NC(=O)[C@H](Cc2cccc(C(F)(F)F)c2)NC(=O)[C@H](CC(=O)O)NC(=O)[C@H](Cc2ccc(O)cc2)NC(=O)[C@H](CN2CCOCC2)NC(=O)CSC[C@@H](C(=O)N[C@@H](CCN)C(N)=O)NC(=O)[C@H](CCCN)NC(=O)[C@H](C(C)C)NC(=O)[C@H](CC2CCCCC2)NC(=O)[C@H](CCN)NC1=O [Example 5262] ({CH2CO}-[Ala(morpholin-4-yl)]YD[Phe(3-CF3)]Y(Carboxymethyl)[Bip][Phe(4-CONH2)][NMeA][dL][Dab][Cha]V[Orn]C[Dab]-NH2; thioether N-14)	0.11	
CC(C)C[C@H]1NC(=O)[C@H](C)N(C)C(=O)[C@H](CCC(N)=O)NC(=O)[C@H](Cc2ccc(-c3ccccc3)cc2)NC(=O)[C@H](CCc2ccccc2)NC(=O)[C@H](Cc2cccc(C(F)(F)F)c2)NC(=O)[C@H](CC(=O)O)NC(=O)[C@H](Cc2ccc(O)cc2)NC(=O)[C@H]([C@@H](C)N)NC(=O)CSC[C@@H](C(=O)N[C@@H](CCN)C(N)=O)NC(=O)[C@H](CCC(N)=O)NC(=O)[C@H](C(C)C)NC(=O)[C@H](CC2CCCCC2)NC(=O)[C@H](CCN)NC1=O [Example 5242] ({CH2CO}-[Abu(3R-NH2)]YD[Phe(3-CF3)][hPhe][Bip]Q[NMeA][dL][Dab][Cha]VQC[Dab]-NH2; thioether N-14)		0.0021
CC(=O)Nc1ccc(-c2ccc(C[C@@H]3NC(=O)[C@H](Cc4cccc(C(F)(F)F)c4)NC(=O)[C@H](CC(=O)O)NC(=O)[C@H](Cc4ccc(C(=O)O)cc4)NC(=O)[C@H](CCN)NC(=O)CSC[C@@H](C(=O)N[C@@H](CCN)C(N)=O)NC(=O)[C@H](CC(N)=O)NC(=O)[C@H](C(C)C)NC(=O)[C@H](CC4CCCCC4)NC(=O)[C@H](CCN)NC(=O)[C@@H](CC(C)C)NC(=O)[C@H](C)N(C)C(=O)[C@H](Cc4ccc(C(N)=O)cc4)NC(=O)[C@H](Cc4ccc(-c5ccccc5)cc4)NC3=O)cc2)cc1 [Example 5098] ({CH2CO}-[Dab][Phe(4-COOH)]D[Phe(3-CF3)][Bip(4'-NHAc)][Bip][Phe(4-CONH2)][NMeA][dL][Dab][Cha]VNC[Dab]-NH2; thioether N-14)	0.01	
Cc1cccc(C[C@@H]2NC(=O)[C@H](CC(=O)O)NC(=O)[C@H](Cc3ccc(OCC(=O)O)cc3)NC(=O)[C@H](CC(N)=O)NC(=O)CSC[C@@H](C(=O)N[C@@H](CCN)C(N)=O)NC(=O)[C@H](CCCN)NC(=O)[C@H](C(C)C)NC(=O)[C@H](CC3CCCCC3)NC(=O)[C@H](CCN)NC(=O)[C@@H](CC(C)C)NC(=O)[C@H](C)N(C)C(=O)[C@H](CCC(N)=O)NC(=O)[C@H](Cc3ccc(-c4ccccc4)cc3)NC(=O)[C@H](Cc3ccc(C(=O)O)cc3)NC2=O)c1 [Example 5187] ({CH2CO}-NY(Carboxymethyl)D[Phe(3-Me)][Phe(4-COOH)][Bip]Q[NMeA][dL][Dab][Cha]V[Orn]C[Dab]-NH2; thioether N-14)		0.008
Cc1cccc(C[C@@H]2NC(=O)[C@H](CC(=O)O)NC(=O)[C@H](Cc3ccc(C(=O)O)cc3)NC(=O)[C@H](C)NC(=O)CSC[C@@H](C(=O)N[C@@H](CCN)C(N)=O)NC(=O)[C@H](CC(=O)O)NC(=O)[C@H](C(C)C)NC(=O)[C@H](CC3CCCCC3)NC(=O)[C@H](CCN)NC(=O)[C@@H](CC(C)C)NC(=O)[C@H](C)N(C)C(=O)[C@H](Cc3ccc(C(=O)O)cc3)NC(=O)[C@H](Cc3ccc(-c4ccccc4)cc3)NC(=O)[C@H](Cc3ccc(C(=O)O)cc3)NC2=O)c1 [Example 5135] ({CH2CO}-A[Phe(4-COOH)]D[Phe(3-Me)][Phe(4-COOH)][Bip][Phe(4-COOH)][NMeA][dL][Dab][Cha]VDC[Dab]-NH2; thioether N-14)		0.0068
Cc1cccc(C[C@@H]2NC(=O)[C@H](CC(=O)O)NC(=O)[C@H](Cc3ccc(C(=O)O)cc3)NC(=O)[C@H](CN3CCOCC3)NC(=O)CSC[C@@H](C(=O)N[C@@H](CCN)C(N)=O)NC(=O)[C@H](CCC(N)=O)NC(=O)[C@H](C(C)C)NC(=O)[C@H](CC3CCCCC3)NC(=O)[C@H](CCN)NC(=O)[C@@H](CC(C)C)NC(=O)[C@H](C)N(C)C(=O)[C@H](Cc3ccc(C(=O)O)cc3)NC(=O)[C@H](Cc3ccc(-c4ccccc4)cc3)NC(=O)[C@H](Cc3ccc(C(=O)O)cc3)NC2=O)c1 [Example 5260] ({CH2CO}-[Ala(morpholin-4-yl)][Phe(4-COOH)]D[Phe(3-Me)][Phe(4-COOH)][Bip][Phe(4-COOH)][NMeA][dL][Dab][Cha]VQC[Dab]-NH2; thioether N-14)	0.09	
CC(C)C[C@H]1NC(=O)[C@H](C)N(C)C(=O)[C@H](Cc2ccc(C(=O)O)cc2)NC(=O)[C@H](Cc2ccc(-c3ccccc3)cc2)NC(=O)[C@H](CCc2ccccc2)NC(=O)[C@H](Cc2cccc(C(F)(F)F)c2)NC(=O)[C@H](CC(=O)O)NC(=O)[C@H](Cc2ccc(C(=O)O)cc2)NC(=O)[C@H](CN2CCOCC2)NC(=O)CSC[C@@H](C(=O)N[C@@H](CCN)C(N)=O)NC(=O)[C@H](CNC(=O)CC(F)(F)F)NC(=O)[C@H](C(C)C)NC(=O)[C@H](CC2CCCCC2)NC(=O)[C@H](CCN)NC1=O [Example 5207] ({CH2CO}-[Ala(morpholin-4-yl)][Phe(4-COOH)]D[Phe(3-CF3)][hPhe][Bip][Phe(4-COOH)][NMeA][dL][Dab][Cha]V[Dap](Propanoyl(3,3,3-F3))C[Dab]-NH2; thioether N-14)	0.03	
